Patent US20060252807A1, “Novel ortho-terphenyl inhibitors of p38 kinase and methods of treating inflammatory disorders” (Kalypsys, Inc., priority 2005, published 2006)

Each molecule was assayed against T1, active p38 alpha enzyme (Upstate Biotechnology) (Homo sapiens, UniProt Q16539) (assay: p38α biochemical assay (ATP turnover, luminescent detection, Cambrex PKlight)). Settings: p38α biochemical assay, Table 1 Biological Activity.
T1 construct: purchased Upstate Biotechnology
Procedure, shortened: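 Active p38α phosphorylates MapkapK2 whole protein with 1.4 uM final ATP, 2 h at 30C, in Tris/MOPS buffer with MgCl2, CaCl2, EGTA, EDTA, glycerol, β-mercaptoethanol and 1 mg/ml BSA. Compounds pin-delivered from DMSO; total ATP turnover read by luminescence after PKlight addition.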

T1 sequence (Q16539 whole entry): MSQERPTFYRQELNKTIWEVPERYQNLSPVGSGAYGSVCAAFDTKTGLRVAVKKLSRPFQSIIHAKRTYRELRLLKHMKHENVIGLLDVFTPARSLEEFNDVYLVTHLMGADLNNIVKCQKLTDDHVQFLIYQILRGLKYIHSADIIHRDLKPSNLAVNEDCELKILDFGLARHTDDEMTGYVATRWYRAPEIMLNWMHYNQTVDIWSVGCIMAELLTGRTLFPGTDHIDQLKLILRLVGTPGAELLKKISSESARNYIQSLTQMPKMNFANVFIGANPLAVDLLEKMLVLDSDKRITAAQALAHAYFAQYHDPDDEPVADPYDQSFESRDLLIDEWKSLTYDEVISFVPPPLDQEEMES

Row | SMILES | IC50
1 | CC(C)NC(=O)c1csc(-c2oc(CNC(=O)c3ccc(Br)cc3)nc2-c2ccc(F)cc2)n1 [Example 269] | > 1 µM
2 | CC(C)NC(=O)c1csc(-c2oc(CNC(=O)c3cccc(Cl)c3[N+](=O)[O-])nc2-c2ccc(F)cc2)n1 [Example 270] | ≤ 1 µM
3 | CC(C)NC(=O)c1csc(-c2oc(CNC(=O)c3cc([N+](=O)[O-])ccc3Cl)nc2-c2ccc(F)cc2)n1 [Example 271] | ≤ 1 µM
4 | CC(C)NC(=O)c1csc(-c2oc(CNC(=O)c3ccc([N+](=O)[O-])cc3Cl)nc2-c2ccc(F)cc2)n1 [Example 272] | ≤ 1 µM
5 | CC(C)NC(=O)c1csc(-c2oc(CNC(=O)c3ccc(Cl)cc3[N+](=O)[O-])nc2-c2ccc(F)cc2)n1 [Example 273] | ≤ 1 µM
6 | CC(C)NC(=O)c1csc(-c2oc(CNC(=O)c3cc(Cl)ccc3[N+](=O)[O-])nc2-c2ccc(F)cc2)n1 [Example 275] | ≤ 1 µM
7 | CC(C)NC(=O)c1csc(-c2oc(CNC(=O)Cc3ccc(C(F)(F)F)cc3)nc2-c2ccc(F)cc2)n1 [Example 279] | > 1 µM
8 | CC(C)Cc1ccc(C(C)C(=O)NCc2nc(-c3ccc(F)cc3)c(-c3nc(C(=O)NC(C)C)cs3)o2)cc1 (stereo not drawn) [Example 280] | > 1 µM
9 | COc1cc(OC)c(C(=O)NCc2nc(-c3ccc(F)cc3)c(-c3nc(C(=O)NC(C)C)cs3)o2)c(OC)c1 [Example 283] | ≤ 1 µM
10 | COc1ccc(C(=O)NCc2nc(-c3ccc(F)cc3)c(-c3nc(C(=O)NC(C)C)cs3)o2)c(OC)c1OC [Example 286] | > 1 µM
11 | CC(C)NC(=O)c1csc(-c2oc(CNC(=O)c3ccccc3Oc3ccccc3)nc2-c2ccc(F)cc2)n1 [Example 289] | > 1 µM
12 | CC(C)NC(=O)c1csc(-c2oc(CNC(=O)c3ccc(Oc4ccccc4)cc3)nc2-c2ccc(F)cc2)n1 [Example 290] | > 1 µM
13 | CC(C)NC(=O)c1csc(-c2oc(CNC(=O)c3ccc(-c4ccc(O)cc4)cc3)nc2-c2ccc(F)cc2)n1 [Example 291] | ≤ 1 µM
14 | Cc1ccc(C(=O)NCc2nc(-c3ccc(F)cc3)c(-c3nc(C(=O)NC(C)C)cs3)o2)cc1Br [Example 293] | > 1 µM
15 | CC(C)NC(=O)c1csc(-c2oc(CNC(=O)/C=C/c3ccccc3C(F)(F)F)nc2-c2ccc(F)cc2)n1 [Example 296] | > 1 µM
16 | CC(C)NC(=O)c1csc(-c2oc(CNC(=O)C(NC(=O)OC(C)(C)C)C(C)C)nc2-c2ccc(F)cc2)n1 (stereo not drawn) [Example 298] | > 1 µM
17 | CC(C)NC(=O)c1csc(-c2oc(CNC(=O)C(NC(=O)OC(C)(C)C)C(C)C)nc2-c2ccc(F)cc2)n1 (stereo not drawn) [Example 299] | > 1 µM
18 | Cc1nc(Br)sc1C(=O)NCc1nc(-c2ccc(F)cc2)c(-c2nc(C(=O)NC(C)C)cs2)o1 [Example 302] | ≤ 1 µM
19 | CC(C)NC(=O)c1csc(-c2oc(CNC(=O)c3c4ccccc4cc4ccccc34)nc2-c2ccc(F)cc2)n1 [Example 303] | ≤ 1 µM

Row | SMILES | IC50
20 | COc1cc(C(=O)NCc2nc(-c3ccc(F)cc3)c(-c3nc(C(=O)NC(C)C)cs3)o2)c([N+](=O)[O-])cc1OC [Example 307] | ≤ 1 µM
21 | CC(C)NC(=O)c1csc(-c2oc(CNC(=O)c3ccc(OCc4ccccc4)cc3)nc2-c2ccc(F)cc2)n1 [Example 308] | ≤ 1 µM
22 | CC(C)NC(=O)c1csc(-c2oc(CNC(=O)C3CCCCN3C(=O)OC(C)(C)C)nc2-c2ccc(F)cc2)n1 (stereo not drawn) [Example 311] | > 1 µM
23 | CC(C)NC(=O)c1csc(-c2oc(CNC(=O)c3ccc(Oc4cccc(O)c4)cc3)nc2-c2ccc(F)cc2)n1 [Example 312] | ≤ 1 µM
24 | COc1ccc2cc(C(C)C(=O)NCc3nc(-c4ccc(F)cc4)c(-c4nc(C(=O)NC(C)C)cs4)o3)ccc2c1 (stereo not drawn) [Example 313] | ≤ 1 µM
25 | CC(C)NC(=O)c1csc(-c2oc(CNC(=O)C3CN(C(=O)OC(C)(C)C)CCN3)nc2-c2ccc(F)cc2)n1 (stereo not drawn) [Example 315] | ≤ 1 µM
26 | COc1ccc(Br)c(C(=O)NCc2nc(-c3ccc(F)cc3)c(-c3nc(C(=O)NC(C)C)cs3)o2)c1 [Example 316] | ≤ 1 µM
27 | CC(C)NC(=O)c1csc(-c2oc(CNC(=O)C3CC(O)CN3C(=O)OC(C)(C)C)nc2-c2ccc(F)cc2)n1 (stereo not drawn) [Example 317] | > 1 µM
28 | CC(C)NC(=O)c1csc(-c2oc(CNC(=O)c3cc(Br)ccc3Cl)nc2-c2ccc(F)cc2)n1 [Example 320] | ≤ 1 µM
29 | CC(C)NC(=O)c1csc(-c2oc(CNC(=O)c3ccccc3C(=O)c3ccc(F)cc3)nc2-c2ccc(F)cc2)n1 [Example 323] | > 1 µM
30 | CC(C)NC(=O)c1csc(-c2oc(CNC(=O)C(C)c3ccc(-c4ccccc4)c(F)c3)nc2-c2ccc(F)cc2)n1 (stereo not drawn) [Example 324] | > 1 µM
31 | CCC(C)C(NC(=O)OC(C)(C)C)C(=O)NCc1nc(-c2ccc(F)cc2)c(-c2nc(C(=O)NC(C)C)cs2)o1 (stereo not drawn) [Example 328] | > 1 µM
32 | CC(C)CC(NC(=O)OC(C)(C)C)C(=O)NCc1nc(-c2ccc(F)cc2)c(-c2nc(C(=O)NC(C)C)cs2)o1 (stereo not drawn) [Example 329] | > 1 µM
33 | CC(C)NC(=O)c1csc(-c2oc(CNC(=O)C(C)c3cccc(C(=O)c4ccccc4)c3)nc2-c2ccc(F)cc2)n1 (stereo not drawn) [Example 330] | > 1 µM
34 | CC(C)NC(=O)c1csc(-c2oc(CNC(=O)C(Cc3ccccc3)NC(=O)OC(C)(C)C)nc2-c2ccc(F)cc2)n1 (stereo not drawn) [Example 331] | ≤ 1 µM
35 | CC(C)NC(=O)c1csc(-c2oc(CNC(=O)C(Cc3ccccn3)NC(=O)OC(C)(C)C)nc2-c2ccc(F)cc2)n1 (stereo not drawn) [Example 332] | > 1 µM
36 | CC(C)NC(=O)c1csc(-c2oc(CNC(=O)C3Cc4ccccc4CN3C(=O)OC(C)(C)C)nc2-c2ccc(F)cc2)n1 (stereo not drawn) [Example 333] | > 1 µM
37 | CC(C)NC(=O)c1csc(-c2oc(CN3CCN(C(=O)C=O)CC3)nc2-c2ccc(F)cc2)n1 [Example 336] | ≤ 1 µM

Further lines, results first:

Row | IC50 | SMILES
38 | > 1 µM | CC(C)NC(=O)c1csc(-c2oc(CNC(=O)c3ccc(Cl)c([N+](=O)[O-])c3)nc2-c2ccc(F)cc2)n1 [Example 274]
39 | > 1 µM | CC(C)NC(=O)c1csc(-c2oc(CNC(=O)c3cccc(Br)n3)nc2-c2ccc(F)cc2)n1 [Example 276]
40 | ≤ 1 µM | CC(C)NC(=O)c1csc(-c2oc(CNC(=O)c3cncc(Br)c3)nc2-c2ccc(F)cc2)n1 [Example 277]
41 | ≤ 1 µM | CC(C)NC(=O)c1csc(-c2oc(CNC(=O)c3cc(F)c(F)cc3[N+](=O)[O-])nc2-c2ccc(F)cc2)n1 [Example 278]
42 | ≤ 1 µM | CC(C)NC(=O)c1csc(-c2oc(CNC(=O)c3cc(Cl)c(O)c(Cl)c3)nc2-c2ccc(F)cc2)n1 [Example 281]
43 | ≤ 1 µM | CC(C)NC(=O)c1csc(-c2oc(CNC(=O)c3c(F)c(F)c(F)c(F)c3F)nc2-c2ccc(F)cc2)n1 [Example 282]
44 | > 1 µM | COc1cc(OC)c(C(=O)NCc2nc(-c3ccc(F)cc3)c(-c3nc(C(=O)NC(C)C)cs3)o2)cc1OC [Example 284]
45 | > 1 µM | COc1cc(C(=O)NCc2nc(-c3ccc(F)cc3)c(-c3nc(C(=O)NC(C)C)cs3)o2)cc(OC)c1OC [Example 285]
46 | > 1 µM | CC(C)NC(=O)c1csc(-c2oc(CNC(=O)c3ccccc3Cc3ccccc3)nc2-c2ccc(F)cc2)n1 [Example 287]
47 | > 1 µM | CC(C)NC(=O)c1csc(-c2oc(CNC(=O)c3cccc(Oc4ccccc4)c3)nc2-c2ccc(F)cc2)n1 [Example 288]
48 | > 1 µM | Cc1cc(C(=O)NCc2nc(-c3ccc(F)cc3)c(-c3nc(C(=O)NC(C)C)cs3)o2)ccc1Br [Example 292]
49 | > 1 µM | CC(C)NC(=O)c1csc(-c2oc(CNC(=O)Cc3ccc(Br)cc3)nc2-c2ccc(F)cc2)n1 [Example 294]
50 | > 1 µM | CC(C)NC(=O)c1csc(-c2oc(CNC(=O)C3CCCN3C(=O)OC(C)(C)C)nc2-c2ccc(F)cc2)n1 (stereo not drawn) [Example 295]
51 | > 1 µM | CCOc1ccc2ccccc2c1C(=O)NCc1nc(-c2ccc(F)cc2)c(-c2nc(C(=O)NC(C)C)cs2)o1 [Example 297]
52 | ≤ 1 µM | CC(C)NC(=O)c1csc(-c2oc(CNC(=O)CCc3cccc(C(F)(F)F)c3)nc2-c2ccc(F)cc2)n1 [Example 300]
53 | ≤ 1 µM | CC1=NN(c2ccc(C(=O)NCc3nc(-c4ccc(F)cc4)c(-c4nc(C(=O)NC(C)C)cs4)o3)cc2)C(=O)C1 [Example 301]
54 | ≤ 1 µM | CC(C)NC(=O)c1csc(-c2oc(CNC(=O)c3cc(C(C)C)cc(C(C)C)c3O)nc2-c2ccc(F)cc2)n1 [Example 304]
55 | ≤ 1 µM | CC(=O)NC(Cc1ccc(O)cc1)C(=O)NCc1nc(-c2ccc(F)cc2)c(-c2nc(C(=O)NC(C)C)cs2)o1 (stereo not drawn) [Example 305]
56 | ≤ 1 µM | CC(C)NC(=O)c1csc(-c2oc(CNC(=O)c3c(Cl)cc(Cl)cc3Cl)nc2-c2ccc(F)cc2)n1 [Example 306]
57 | > 1 µM | CC(C)NC(=O)c1csc(-c2oc(CNC(=O)CCc3ccccc3Br)nc2-c2ccc(F)cc2)n1 [Example 309]
58 | > 1 µM | CC(C)NC(=O)c1csc(-c2oc(CNC(=O)CCc3cccc(Br)c3)nc2-c2ccc(F)cc2)n1 [Example 310]
59 | ≤ 1 µM | CC(C)NC(=O)c1csc(-c2oc(CNC(=O)C3CN(C(=O)OC(C)(C)C)CCN3)nc2-c2ccc(F)cc2)n1 (stereo not drawn) [Example 314]
60 | > 1 µM | CC(C)NC(=O)c1csc(-c2oc(CNC(=O)C(C(C)C)N(C)C(=O)OC(C)(C)C)nc2-c2ccc(F)cc2)n1 (stereo not drawn) [Example 318]
61 | ≤ 1 µM | CC(C)NC(=O)c1csc(-c2oc(CNC(=O)c3ccc(C(F)(F)F)cc3[N+](=O)[O-])nc2-c2ccc(F)cc2)n1 [Example 319]
62 | > 1 µM | CC(C)NC(=O)c1csc(-c2oc(CNC(=O)c3ccc(Cl)c(Br)c3)nc2-c2ccc(F)cc2)n1 [Example 321]
63 | ≤ 1 µM | CC(C)NC(=O)c1csc(-c2oc(CNC(=O)c3ccccc3C(=O)c3ccc(O)cc3)nc2-c2ccc(F)cc2)n1 [Example 322]
64 | > 1 µM | CC(C)NC(=O)c1csc(-c2oc(CNC(=O)C3CCCN3C(=O)OCc3ccccc3)nc2-c2ccc(F)cc2)n1 (stereo not drawn) [Example 327]
65 | ≤ 1 µM | CC(C)NC(=O)c1csc(-c2oc(CNC(=O)C(Cc3ccc(O)cc3)NC(=O)OC(C)(C)C)nc2-c2ccc(F)cc2)n1 (stereo not drawn) [Example 334]
66 | ≤ 1 µM | CC(=O)N1CCN(Cc2nc(-c3ccc(F)cc3)c(-c3nc(C(=O)NC(C)C)cs3)o2)CC1 [Example 335]
